Data: publication PMC4485237, “SPECT/CT Imaging of High-Risk Atherosclerotic Plaques using Integrin-Binding RGD Dimer Peptides” (Scientific Reports, 2015)

Molecular target: T1, integrin αvβ3 (Mus musculus, UniProt O54890+P43406)
T1 construct: from tissue; host or cells: aorta (atherosclerotic plaque and normal regions) of living ApoE-/- and wild-type C57BL/6J mice
T1 sequence (P43406 31-1044): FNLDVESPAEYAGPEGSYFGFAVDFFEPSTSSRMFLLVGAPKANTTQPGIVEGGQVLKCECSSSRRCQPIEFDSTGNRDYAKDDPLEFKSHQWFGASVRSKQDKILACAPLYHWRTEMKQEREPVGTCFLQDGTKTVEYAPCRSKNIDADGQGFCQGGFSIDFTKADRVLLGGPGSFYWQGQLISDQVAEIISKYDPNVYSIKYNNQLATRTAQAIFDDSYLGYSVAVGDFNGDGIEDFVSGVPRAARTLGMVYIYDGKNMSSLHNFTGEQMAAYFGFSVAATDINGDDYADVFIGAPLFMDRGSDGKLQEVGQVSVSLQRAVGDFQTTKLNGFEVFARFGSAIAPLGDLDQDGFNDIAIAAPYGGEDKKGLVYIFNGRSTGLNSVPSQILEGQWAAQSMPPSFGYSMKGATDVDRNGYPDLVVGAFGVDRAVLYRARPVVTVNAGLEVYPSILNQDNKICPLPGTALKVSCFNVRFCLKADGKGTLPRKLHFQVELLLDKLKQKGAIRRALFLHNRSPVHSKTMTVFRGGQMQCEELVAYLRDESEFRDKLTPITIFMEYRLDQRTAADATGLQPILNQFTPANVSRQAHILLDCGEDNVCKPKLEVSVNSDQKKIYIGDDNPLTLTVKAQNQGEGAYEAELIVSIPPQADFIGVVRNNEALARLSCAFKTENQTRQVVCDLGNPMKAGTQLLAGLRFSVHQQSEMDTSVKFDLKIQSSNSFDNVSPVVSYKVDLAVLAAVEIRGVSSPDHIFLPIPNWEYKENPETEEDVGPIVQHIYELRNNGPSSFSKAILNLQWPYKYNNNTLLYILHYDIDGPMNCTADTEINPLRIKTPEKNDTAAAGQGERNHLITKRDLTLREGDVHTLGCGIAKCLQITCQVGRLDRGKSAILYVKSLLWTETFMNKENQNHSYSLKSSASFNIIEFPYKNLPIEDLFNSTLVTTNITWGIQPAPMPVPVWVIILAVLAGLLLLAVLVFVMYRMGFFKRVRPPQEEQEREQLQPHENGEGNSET
T1 sequence (O54890 26-787): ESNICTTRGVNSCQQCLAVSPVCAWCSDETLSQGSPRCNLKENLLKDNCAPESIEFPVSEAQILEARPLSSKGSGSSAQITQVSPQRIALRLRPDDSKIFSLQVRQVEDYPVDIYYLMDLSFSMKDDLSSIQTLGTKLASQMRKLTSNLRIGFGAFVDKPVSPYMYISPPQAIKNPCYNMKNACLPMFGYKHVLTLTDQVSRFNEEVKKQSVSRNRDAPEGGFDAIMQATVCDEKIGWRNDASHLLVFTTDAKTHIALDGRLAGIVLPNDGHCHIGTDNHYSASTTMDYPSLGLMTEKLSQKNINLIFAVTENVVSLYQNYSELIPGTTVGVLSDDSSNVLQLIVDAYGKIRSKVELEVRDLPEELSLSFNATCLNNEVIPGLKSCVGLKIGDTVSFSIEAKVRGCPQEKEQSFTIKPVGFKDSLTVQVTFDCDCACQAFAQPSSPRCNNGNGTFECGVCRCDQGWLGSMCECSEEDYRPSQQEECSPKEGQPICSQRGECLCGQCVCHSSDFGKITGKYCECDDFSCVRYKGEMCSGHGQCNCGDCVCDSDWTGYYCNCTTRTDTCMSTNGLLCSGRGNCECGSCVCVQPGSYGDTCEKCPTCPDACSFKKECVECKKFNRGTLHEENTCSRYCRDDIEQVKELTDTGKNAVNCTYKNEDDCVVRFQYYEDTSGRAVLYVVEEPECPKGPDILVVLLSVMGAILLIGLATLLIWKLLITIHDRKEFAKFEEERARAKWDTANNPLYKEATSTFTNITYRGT
Assay: In vivo SPECT/CT imaging and ROI quantification of radiotracer uptake in aorta of atherosclerotic (ApoE-/-, high-cholesterol diet) and wild-type mice
Conditions: 30 min post-injection, RGD and RAD tracers in the same mouse on consecutive days
Description: All animal experiments were carried out in accordance with the approved guidelines by the Seoul National University Bundang Hospital Animal Care and Use Committee. Apolipoprotein E knock out mice (male, n = 10) and C57BL/6J mice (male, n = 3) were purchased from the Jackson Laboratory (Bar Harbor, Maine, USA) at 8–10 weeks of age. The ApoE-/- mice were maintained on a high-cholesterol diet (0.2% total cholesterol, Harlan Laboratories, Indianapolis, IN, USA) for 40 weeks. At the time of imaging experiment, the mice had substantial atherosclerotic lesion growth resembling vulnerable plaques in humans. Wild-type mice with the C57BL/6J genetic background had been maintained on a regular diet and were used for the disease controls.
We anesthetized mice with 2% isoflurane gas anesthesia. […] The analysis software HiSPECT (Version 1.0, Bioscan Inc., Poway, CA, USA) and InVivoScope (Version 1.43, Bioscan Inc., Poway, CA, USA) were used for image reconstruction and quantification, respectively. […] Manually drawn two-dimensional regions of interest (ROIs) or three-dimensional volumes of interest (VOIs) were used to determine the accumulated radioactivity in units of %ID/g (with decay corrected to the time of injection) using 37–55.5 MBq radioactivity of ^99mTc as the reference source.

[O]=[99Tc](=[O])(=[O])[O-] [^99mTc-pertechnetate]
SPECT uptake in aortic arch region containing atherosclerotic plaques (in words): no specific accumulation
